In PMC3581696 (The Journal of General Physiology, 2013):
Changes are numbered by the printed parent chain. Values joined by “and” are separate entries in the source; they are usually repeats but may differ in a detail not shown here. Equal values may be shown once.

How the values were obtained:
mEAG1 channel = biological target: T1, mEAG1 channel (Mus musculus, UniProt Q60603); experiment: Inside-out patch-clamp of wild-type mEAG1 channels expressed in Xenopus oocytes; type: cell-based
T1 sequence (Q60603 1-989): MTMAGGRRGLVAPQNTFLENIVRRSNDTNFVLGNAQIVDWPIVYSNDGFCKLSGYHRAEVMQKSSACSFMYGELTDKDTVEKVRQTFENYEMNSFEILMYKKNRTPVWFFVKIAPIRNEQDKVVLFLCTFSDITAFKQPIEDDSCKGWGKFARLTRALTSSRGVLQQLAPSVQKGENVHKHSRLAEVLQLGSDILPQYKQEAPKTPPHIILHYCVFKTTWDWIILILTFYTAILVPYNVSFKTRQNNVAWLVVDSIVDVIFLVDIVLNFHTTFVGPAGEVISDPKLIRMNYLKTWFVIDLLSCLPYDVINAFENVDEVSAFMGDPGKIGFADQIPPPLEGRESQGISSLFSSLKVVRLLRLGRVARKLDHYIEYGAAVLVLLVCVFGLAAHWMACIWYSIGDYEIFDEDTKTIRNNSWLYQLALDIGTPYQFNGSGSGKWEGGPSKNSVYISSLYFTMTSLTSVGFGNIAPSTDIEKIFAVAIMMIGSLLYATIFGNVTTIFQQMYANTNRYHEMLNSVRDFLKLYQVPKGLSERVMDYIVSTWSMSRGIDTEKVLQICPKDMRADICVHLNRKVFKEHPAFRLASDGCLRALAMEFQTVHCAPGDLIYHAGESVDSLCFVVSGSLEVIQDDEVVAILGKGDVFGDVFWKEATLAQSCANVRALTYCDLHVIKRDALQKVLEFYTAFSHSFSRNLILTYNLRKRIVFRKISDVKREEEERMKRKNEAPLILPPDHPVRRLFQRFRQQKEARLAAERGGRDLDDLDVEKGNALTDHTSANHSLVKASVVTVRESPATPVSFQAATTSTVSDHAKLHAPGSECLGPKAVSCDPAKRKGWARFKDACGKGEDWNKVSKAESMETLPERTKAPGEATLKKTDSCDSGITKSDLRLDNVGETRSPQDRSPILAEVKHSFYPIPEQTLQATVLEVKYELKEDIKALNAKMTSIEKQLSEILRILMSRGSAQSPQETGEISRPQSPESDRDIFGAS

[1] = biological target: T2, purified C-linker/CNBHD of mEAG1 channels (Mus musculus, UniProt Q60603); experiment: Tryptophan-to-flavonoid FRET binding assay; conditions: 100 µM flavonoid; 4 µM protein
T2 sequence (Q60603 505-702): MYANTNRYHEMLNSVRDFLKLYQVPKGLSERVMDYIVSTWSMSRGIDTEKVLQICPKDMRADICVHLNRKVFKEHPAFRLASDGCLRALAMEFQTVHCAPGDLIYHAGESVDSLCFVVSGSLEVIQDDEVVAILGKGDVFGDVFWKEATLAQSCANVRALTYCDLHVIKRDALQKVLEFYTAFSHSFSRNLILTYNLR

[2] = biological target: T3, wild-type CNBHD from mEAG1 (Mus musculus, UniProt Q60603); experiment: Fisetin fluorescence anisotropy binding assay, wild-type CNBHD; conditions: Kd (apparent affinity), 5 µM fisetin, fit with Eq. 7
T3 sequence (Q60603 552-724): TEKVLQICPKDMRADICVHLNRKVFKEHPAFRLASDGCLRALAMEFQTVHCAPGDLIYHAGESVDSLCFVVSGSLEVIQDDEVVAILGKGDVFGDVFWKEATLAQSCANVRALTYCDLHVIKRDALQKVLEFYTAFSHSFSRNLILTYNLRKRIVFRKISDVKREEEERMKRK

[3] = biological target: T4, Y699A mutant CNBHD from mEAG1 (Mus musculus, UniProt Q60603, Y699A); experiment: Fisetin fluorescence anisotropy binding assay, Y699A CNBHD; conditions: Kd (apparent affinity), 5 µM fisetin, fit with Eq. 7
T4 sequence (Q60603 552-724 Y699A): T3 sequence (Q60603 552-724) with Y148A

[4] = Solubility limit in recording / aqueous solutions; type: physicochemical; conditions: recording solutions, aqueous buffer

Hill coefficient, deactivation time constant versus fisetin plot (mEAG1 channel): 1.2
Hill coefficient, ΔV1/2 versus fisetin plot (mEAG1 channel): 2.2
effect on mEAG1 currents at high concentration (mEAG1 channel; concentrations of 100 µM and higher): inhibited mEAG1 currents
time constant of deactivation (mEAG1 channel; with 30 µM fisetin, at −120 mV after step to +50 mV, 4.5 ± 0.8 ms without, n = 6): 7.2 ± 1.0 ms
time constant of deactivation (single tail current of Fig. 3 C) (mEAG1 channel; with 30 µM fisetin, tail current at −120 mV after step to 50 mV, 5.3 ms before): 13.9 ms
V1/2 of the conductance–voltage relationship (mEAG1 channel; with 30 µM fisetin, −41.9 ± 4.1 mV without, n = 6): −55.4 ± 3.7 mV
decrease of peak fluorescence intensity of the C-linker/CNBHD at 341 nm [1]: 27%
Kd [2]: 111 µM and ≥ 111 µM
Kd [3]: 30 µM and ≥ 30 µM
solubility [4]: ≤ 150 µM
SMILES: O=c1c(O)c(-c2ccc(O)c(O)c2)oc2cc(O)ccc12 [Fisetin, 2-(3,4-dihydroxyphenyl)-3,7-dihydroxychromen-4-one]
